Reference: publication PMC6286348, “Inhibitor binding mode and allosteric regulation of Na^+-glucose symporters” (Nature Communications, 2018)
Numbering of substitutions follows the chain as printed.

Experiments:
[1] = target: T1, hSGLT1 T287C (Homo sapiens, UniProt P13866, T287C); design: method as in PMID 29087341; details: oocytes, 22 °C; cited from earlier work
T1 construct: expressed in transfected cells; host or cells: Xenopus laevis oocytes injected with cRNA
T1 sequence (P13866 1-664 T287C): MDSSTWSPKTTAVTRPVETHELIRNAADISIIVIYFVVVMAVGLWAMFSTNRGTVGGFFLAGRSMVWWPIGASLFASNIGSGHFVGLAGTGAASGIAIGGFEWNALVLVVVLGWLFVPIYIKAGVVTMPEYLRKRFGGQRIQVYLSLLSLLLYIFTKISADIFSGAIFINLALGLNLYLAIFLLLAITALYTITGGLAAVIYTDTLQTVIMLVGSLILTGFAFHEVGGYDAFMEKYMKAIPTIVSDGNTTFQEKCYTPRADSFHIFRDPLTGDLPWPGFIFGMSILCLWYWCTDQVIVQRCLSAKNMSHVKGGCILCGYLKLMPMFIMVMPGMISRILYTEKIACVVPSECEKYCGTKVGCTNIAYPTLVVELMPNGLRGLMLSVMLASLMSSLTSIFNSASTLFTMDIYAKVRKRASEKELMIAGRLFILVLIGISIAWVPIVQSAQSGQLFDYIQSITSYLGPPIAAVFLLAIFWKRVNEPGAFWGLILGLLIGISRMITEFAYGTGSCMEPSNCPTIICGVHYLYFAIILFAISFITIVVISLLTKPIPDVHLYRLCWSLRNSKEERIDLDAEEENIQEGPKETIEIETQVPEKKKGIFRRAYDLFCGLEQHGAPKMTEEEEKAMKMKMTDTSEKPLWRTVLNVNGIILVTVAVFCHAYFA

[2] = tested on: hSGLT1 F101C; design: method as in PMID 22159082; details: oocytes, 22 °C; cited from earlier work
[3] = tested on: hSGLT1 Q457C; design: method as in PMID 22159082; details: oocytes, 22 °C; cited from earlier work
[4] = tested on: hSGLT1 S392A/C; design: method as in PMID 22159082; details: oocytes, 22 °C; cited from earlier work
[5] = target: T2, hSGLT1 T395A (Homo sapiens, UniProt P13866, T395A); assay: SGLT current measurement in oocytes, hSGLT1 T395A; assay type: cell-based; details: 22 °C
T2 construct: expressed in transfected cells; host or cells: Xenopus laevis oocytes injected with cRNA
T2 sequence (P13866 1-664 T395A): T1 sequence (P13866 1-664 T287C) with C287T, T395A
Procedure: Xenopus laevis (Nasco) oocytes (V–VI) were prepared as previously described[20] and injected with 50 nl of cRNA (1 μg/μl). […] Briefly, oocytes were incubated for 30 min in the presence of 50 μM αMDG (5 μM [^14C]αMDG) in a buffer containing (in mM) 100 NaCl, 2 KCl, 1 MgCl2, 1 CaCl2, and 10 N-(2-hydroxyethyl)piperazine-N′-(2-ethanesulfonic acid) (HEPES)/Tris (pH 7.5). After incubation, oocytes were rinsed thoroughly with ice-cold buffer containing (mM) 100 choline Cl^–, 2 KCl, 1 MgCl2, 1 CaCl2, and 10 HEPES/Tris (pH 7.5), individually lysed with 5% sodium dodecyl sulfate, and assayed for radioactivity.
Injected oocytes were incubated at 18 °C, and after 3–4 days, two electrode voltage clamp experiments were performed as previously described. Briefly, SGLT inward glucose currents were measured as a function of the external Na^+ (0–100 mM NaCl), sugar (0–100 mM αMDG), and inhibitors (0.001–100 μM). Steady-state and hSGLT1 capacitive currents were recorded using voltage steps from a holding voltage, Vh of −60 mV, to voltages in the range of −180 to +50 mV in 20 mV increments. The apparent affinity of αMDG, K0.5, was estimated from plots of the inward current as a function of the external αMDG concentration. […] The Na^+-to-αMDG stoichiometry was determined from the reversal potential measurements using the Gibbs free energy as previously described. […]

[6] = tested on: hSGLT1 F453C; design: method as in PMID 22159082; details: oocytes, 22 °C; cited from earlier work

For `[Na+]` [Na^+], the “K0.5 Na^+” value [1] is given as 6 ± 0.2[19] mM, the “K0.5 Na^+” value [2] is given as 9 ± 1[20] mM and the “K0.5 Na^+” value [3] is given as 34 ± 2[20] mM. For the same compound, the “K0.5 Na^+” value [4] was 122 ± 12[20] mM, the “K0.5 Na^+” value [5] was 104 ± 50 mM and the “K0.5 Na^+” value [6] was 21 ± 1[20] mM.
